Experimental findings from US20020002124A1, “Antimicrobial cleansing compositions” (priority 2000, published 2002) are described below.

A short description of this data set: Mildness to the skin (drying, stinging) on topical use. Type of data set: in vivo. To be noted: as proton donating agent in the compositions.

Consider `O=C1CCC(C(=O)O)N1` (stereo not shown) [2-pyrrolidone-5 carboxylic acid], for which the “mildness to the skin and stinging compared with other acids suitable for topical application” value was “milder to the skin and causes less stinging than many other acids”.
